According to article PMC3549755, “A comparison of the ability of rilpivirine (TMC278) and selected analogues to inhibit clinically relevant HIV-1 reverse transcriptase mutants” (Retrovirology, 2012):
Read-outs that look alike come from different tables or passages of the source.

How the values were obtained:
[1] = tested on: viral vectors that replicate using WT HIV reverse transcriptase; assay: single-round infectivity assay, luciferase reporter, vector with WT RT; type: cell-based, HIV-1; details: SD in parentheses
Source text: (§1) We examined the effects of rilpivirine and the analogues on HIV-1 replication using a previously described assay and report the concentrations at which luciferase reporter activity was reduced by half relative to uninhibited controls (EC50) with standard deviations in parentheses. In the assay, viral vectors that replicate using WT HIV reverse transcriptase or one of several mutants (L100I, K103N, V106A, E138K, Y181C, Y188L, H221Y and the double mutant K103N/Y181C) were used to infect cells in a single round assay. These mutants were chosen either because they are known NNRTI resistance mutations (L100I, K103N, Y181C, and the K103N/Y181C double mutant), they were selected in patients in rilpivirine clinical trials (E138K and H221Y), or they are positioned to make significant Van der Waals contacts with rilpivirine (V106A and Y188L). All compounds were initially screened against a panel that included at least one RT mutant from all three groups (WT, K103N, E138K, Y181C and Y188L). The cytotoxicity of the compounds was also determined to establish the therapeutic index of each of the compounds.
(§2) Procedures for virion production and cell-based assay have been reported. Briefly, all cell cultures were maintained in Dulbecco’s modified Eagle’s medium (Invitrogen, Carlsbad, CA) with 5% (v/v) fetal bovine serum, 5% newborn calf serum, penicillin (50 units/mL) and streptomycin (50 μg/mL) (Quality Biological, Gaithersburg, MD). […]. Transfected cells were incubated at 37°C for 8 hrs, washed twice with PBS, fresh media was added and the cells were returned to the incubator for 48 hrs. The pNLNgoMIVR^+ΔEnv.LUC plasmid encodes the HIV-1 genome with an Env deletion and either WT HIV-1 RT, or one of the following mutants: L100I, K103N, V106A, E138K, Y181C, Y188L, H221Y, or K103N/Y181C. Supernatants from each plate were clarified by low-speed centrifugation (3,000xg for 20 min), then treated with 200 U DNase I (Roche Applied Science, Mannheim, Germany) at room temperature for 3 hours. Viral supernatants were stored at −20°C until used.
(§3) One day prior to infection, 100 μL of human osteosarcoma (HOS) cells were added to each well of a 96-well plate at a density of 4x10^4 cells/mL. Plates were incubated overnight at 37°C. On the day of infection, 10X drug stocks were prepared by serial dilution in media from an initial 10 mM stock solution in DMSO. Cells in the 96-well plate were pre-treated by the addition of 22 μL of the appropriate drug stock and returned to the incubator for 3 hours. Thawed virus stocks were diluted 1:2 in media, then 100 μL of virus was added to the pre-treated cells, bringing the final drug concentrations to 0.1 nM to 100 nM, with DMSO-treated cells (no drug) serving as a reference. In addition, 12 wells of cells treated with media and no virus served as negative controls. Plates were returned to the incubator for an additional 42 hours, at which time the luciferase activity was determined using Steady-Lite Plus kits (PerkinElmer, Waltham, MA). Background luciferase activity, as measured for the negative controls, was subtracted from the activities measured for each infected well. Drug-free, DMSO-treated wells were normalized to 100% infectivity. Infectivity at each drug concentration was determined as a percentage of these drug-free infections. Drug concentration versus percent infectivity was plotted for each RT-inhibitor combination, and the data were fit to a four-parameter sigmoidal curve using KaleidaGraph 4.0 (Synergy Software, Reading, PA). The inflection point of each curve is reported as the IC50. All values are the mean of triplicate infections.

[2] = tested on: viral vector with K103N mutant HIV-1 RT; assay: single-round infectivity assay, luciferase reporter, K103N RT vector; type: cell-based; details: Human immunodeficiency virus 1; HOS cells, reduction of luciferase reporter activity, SD in parentheses
Source text: as §1, §2, §3

[3] = tested on: viral vector with E138K mutant HIV-1 RT; assay: single-round infectivity assay, luciferase reporter, E138K RT vector; type: cell-based; details: for EC50: Human immunodeficiency virus 1, HOS cells, reduction of luciferase reporter activity, SD in parentheses; for loss of potency against E138K: compared with rilpivirine (1)
Source text: as §1, §2, §3

[4] = tested on: viral vector with Y181C mutant HIV-1 RT; assay: single-round infectivity assay, luciferase reporter, Y181C RT vector; type: cell-based; details: Human immunodeficiency virus 1; HOS cells, reduction of luciferase reporter activity, SD in parentheses
Source text: as §1, §2, §3

[5] = tested on: viral vector with Y188L mutant HIV-1 RT; assay: single-round infectivity assay, luciferase reporter, Y188L RT vector; type: cell-based; details: Human immunodeficiency virus 1; HOS cells, reduction of luciferase reporter activity, SD in parentheses
Source text: as §1, §2, §3

[6] = tested on: viral vector with L100I mutant HIV-1 RT; assay: single-round infectivity assay, luciferase reporter, L100I RT vector; type: cell-based; details: Human immunodeficiency virus 1; broader panel, SD in parentheses
Source text: as §1, §2, §3

[7] = tested on: viral vector with V106A mutant HIV-1 RT; assay: single-round infectivity assay, luciferase reporter, V106A RT vector; type: cell-based; details: Human immunodeficiency virus 1; broader panel, SD in parentheses
Source text: as §1, §2, §3

[8] = tested on: viral vector with H221Y mutant HIV-1 RT; assay: single-round infectivity assay, luciferase reporter, H221Y RT vector; type: cell-based; details: Human immunodeficiency virus 1; broader panel, SD in parentheses
Source text: as §1, §2, §3

[9] = tested on: viral vector with K103N/Y181C double mutant HIV-1 RT; assay: single-round infectivity assay, luciferase reporter, K103N/Y181C RT vector; type: cell-based; details: for EC50: Human immunodeficiency virus 1, broader panel, SD in parentheses; for fold resistance / loss of potency against K103N/Y181C double mutant: relative to WT
Source text: as §1, §2, §3

[10] = cytotoxicity assay (ATP-Lite cell viability); type: cell-based, human; details: human, HOS cells, 48 hours, SD in parentheses
Description: (§4) One day prior to treatment, HOS cells were prepared in 96-well plates as described for the infectivity assays, except that 12 wells per plate were treated with cell-free media to serve as negative controls. The following day, serial dilutions of drug stocks were prepared in media from 10 mM stocks in DMSO. Each well received 11 μL of the appropriate drug concentration or DMSO-treated, drug-free media. Final drug concentrations ranged from 0.5 μM to 300 μM. The drug-free wells served as references. Plates were then incubated at 37°C for 48 hours. Cell viability was determined using luciferase reporter ATP-Lite kits (PerkinElmer). As described for the infectivity assays, drug-free reference wells were normalized to 100%, and viabilities at different drug concentrations were determined as a percentage of these references. Data were plotted and analyzed in the same manner as the IC50 data, with the inflection points of the curves reported as CC50.

HOS cells = assay: cytotoxicity assay (ATP-Lite cell viability); type: cell-based, human; details: for Therapeutic Index (T.I.): ratio of CC50/EC50 (WT)
Description: as §4

[11] = Human immunodeficiency virus 1, broader panel table, read-out: EC50 WT (Table S1)

| Compound | EC50 [1, 11] | EC50 [2] | EC50 [3] | EC50 [4] | EC50 [5] | EC50 [6] | EC50 [7] | EC50 [8] | EC50 fold greater than that of 7 against K103N/Y181C [9] | EC50 [9] | fold resistance / loss of potency against K103N/Y181C double mutant [9] | CC50 at 48 h [10] | Therapeutic Index (T.I.) (HOS cells) | loss of potency against E138K [3] | EC50 ([1]; HOS cells, reduction of luciferase reporter activity, read-out: EC50 WT) | EC50 ([1]; Human immunodeficiency virus 1, HOS, HOS cells, reduction of luciferase reporter activity, read-out: EC50 WT) | CC50 (HOS cells; HOS cells, 48 hours, SD in parentheses) |
| --- | --- | --- | --- | --- | --- | --- | --- | --- | --- | --- | --- | --- | --- | --- | --- | --- | --- |
| Cc1cc(/C=C/C#N)cc(C)c1Nc1ncc(N)c(Nc2ccc(C#N)cc2)n1 [Analogue 9] | 0.7 nM | 0.7 nM | 2.6 nM | 4.6 nM | 18 nM | 0.5 nM | 0.9 nM | 2.8 nM | ~ 21 fold | 47 nM | ~ 67 fold | 19000 nM | 2.7x10^4 | – | – | – | – |
| Cc1cc(/C=C/C#N)cc(C)c1Nc1nc(Nc2ccc(C#N)cc2)c2nc[nH]c2n1 [Analogue 13] | 0.9 nM | 0.4 nM | 4.2 ± 0.3 nM | 1.4 nM | 2 nM | 0.1 nM | 0.5 nM | 1.3 nM | – | 2.9 nM | – | 15000 nM | 1.7x10^4 | four- to fourteen-fold | – | – | – |
| Cc1cc(/C=C/C#N)cc(C)c1Nc1ncc2ncn(-c3ccc(C#N)cc3)c2n1 [Analogue 26] | 4.5 nM | 6.5 nM | 25 nM | 26 nM | 91 nM | 1.6 nM | 6.5 nM | 17 nM | – | > 100 nM | – | 21000 nM | 4.7x10^3 | – | – | – | – |
| Cc1cc(/C=C/C#N)cc(C)c1Nc1nc(Nc2ccc(C#N)cc2)ncc1[N+](=O)[O-] [Analogue 6] | 0.2 nM | 0.2 nM | 1.4 nM | 2.1 nM | 6.8 ± 0.5 nM | < 0.1 nM | 0.1 nM | 0.4 nM | – | 27 nM | – | 24000 nM | 1.2x10^5 | – | – | – | – |
| Cc1cc(/C=C/C#N)cc(C)c1Nc1ccnc(Nc2ccc(C#N)cc2)n1 [Analogue 1, rilpivirine] | – | 0.2 nM | 0.3 nM | 1.3 nM | 2.3 ± 0.2 nM | < 0.1 nM | 0.1 nM | 0.4 nM | – | 3.1 nM | ~ 8 fold | 10000 ± 600 nM | 2.5x10^4 | – | 0.2 nM | 0.4 ± 0.02 nM | – |
| Cc1cc(/C=C/C#N)cc(C)c1Nc1nc(Nc2ccc(C#N)cc2)ncc1N [Analogue 7] | 0.2 nM | 0.3 nM | 1.3 nM | 1.1 nM | 2.3 ± 0.1 nM | 0.1 nM | 0.1 nM | 0.9 nM | – | 2.2 nM | – | 50000 nM | 2.5x10^5 | four- to fourteen-fold | – | – | > 38000 nM |
